The TGI is the concentration giving total growth inhibition. A word on the GI50: it is the concentration at which growth is held to half of that of the control.

Experimental findings from PubChem BioAssay (NCI) are described below.

Holding throughout (assay): DTP human tumour cell line panel, 48 h
Test [1] deals with SW-620 colon.
Test [2] relates to LOX IMVI melanoma.
The subject of test [3] is SF-295 CNS.
Test [4] deals with NCI-H522 lung.
Test [5] deals with KM12 colon.
Test [6] has as its system OVCAR-3 ovarian.
Test [7] has as its system SF-539 CNS.
Test [8] concerns DU-145 prostate.
The test system of test [9] is T-47D breast.

Several values for one entry are separate records, joined by “and”; a condition that tells them apart may be missing. Identical values can stand only once.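 All cell lines were grown in 96-well plates and treated with compound for 48 hours. GI50 = concentration required for 50% inhibition of growth. The concentration for full growth arrest is given as TGI.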

For the compound `CC(=O)c1cccc(N2COC(C)(C)c3nc4ccccc4n3C2)c1`, the TGI in test [1], in [2], in test [3], in test [4], in test [5] and in test [6] was greater than 100 µM throughout. Moreover, the total growth inhibition concentration (TGI) in test [7] was greater than 100 µM.

`CCN(CC)c1cc2c3c(c1)CCCN3CCC2`: the TGI in test [1], in [2], in test [3], in [4], in test [5] and in test [8] was greater than 10 µM throughout. Moreover, the concentration for total growth inhibition (TGI) in test [6], in test [7] and in [9] was greater than 10 µM in each case.

Regarding `O=C(Nc1cc(Cl)c(Cl)cc1Cl)C(=O)C1C=CCS1(=O)=O` (stereo not drawn), the concentration for total growth inhibition (TGI) in test [1], in [2], in [3], in [4], in test [5] and in test [6] was greater than 100 µM each time. In addition, the TGI in test [7] was greater than 100 µM.

As to `COc1ccccc1N1C(=O)/C(=C/c2ccc(N(CCC#N)CCC#N)cc2C)N=C1c1cc([N+](=O)[O-])ccc1Cl`, the TGI in test [3], in [4], in test [5], in test [6] and in [7] was greater than 100 µM in each case.

As for `COC(=O)c1cc2c(cc1Cl)SC(N(N(C)C)S(=O)(=O)c1ccc(Br)s1)=NS2(=O)=O`, the GI50 in test [1] is 18.6 µM; in test [2], 17.5 µM; in [3], 33.2 µM; in [4] it was 17.9 µM; in [5], 24.8 µM; in test [8], 26.1 µM. For the same compound, the GI50 was 21.6 µM in [6], 21.2 µM in test [7] and 12.8 µM in test [9]. The TGI came to 36.3 µM in test [1]; 31.8 µM in test [2]; 97.3 µM in [3]; 42.1 µM in test [4]; 74.4 µM in test [5]; 86 µM in [8]. The TGI in test [6] was 56.9 µM; in [7], 51.5 µM; in test [9], 43.1 µM.

As for `COc1ccc([N+]2=NC(c3ccc([N+](=O)[O-])cc3)=NN(c3ccccc3)C2)cc1`, the TGI in test [1] was greater than 100 µM; in test [2], greater than 100 µM; in test [3], greater than 100 µM; in test [4] it was 5.87 µM and 10.5 µM; in test [5], greater than 100 µM; in [6] it was greater than 100 µM.

For `C=CC1(C(=O)O)CCC(C(C)(C)C)CC1` (stereo not drawn), the concentration for total growth inhibition (TGI) in test [1], in [3], in [4], in test [5], in [6] and in test [7] was greater than 100 µM in each case.

Consider `Cc1c(NC(=O)C(C)(C)Br)c(=O)oc2c(C)c3occc(=O)c3cc12`, for which the total growth inhibition concentration (TGI) in test [1], in [2], in test [3], in test [6] and in [7] was greater than 100 µM in each case.

As for `Cc1cc(Cl)ccc1NC(=O)CCCC(=O)C1CCCC1=O` (stereo not drawn), the TGI in test [1], in test [2], in test [3], in test [4], in test [5] and in [6] was greater than 100 µM each time. Moreover, the TGI in [7] was greater than 100 µM.

As for `O=[N+]([O-])c1cccc(C2N3CCCCC3[C@@H]3c4[nH]c5ccccc5c4CCN23)c1` (stereo partly drawn), the total growth inhibition concentration (TGI) in [1] was greater than 100 µM; in [3], 31.4 µM; in test [6], 32.2 µM; in [7], 29.7 µM.

As for `Cc1cc(C)c([O-])c(CN(C)CCN(C)Cc2cc(C)cc(C)c2[O-])c1.O=C([O-])c1cccc(C(=O)[O-])n1.[Ti+4]`, the GI50 is 2.89 µM in [1]; 2.57 µM in test [3]; 2.08 µM in test [4]; 3.36 µM in test [5]; 4.57 µM in test [8]; 1.28 µM in test [9]. Also, the TGI in test [1] is greater than 100 µM; in [3], greater than 100 µM; in test [4] it was 5.47 µM; in test [5], greater than 100 µM; in [8], greater than 100 µM; in [9] it was greater than 100 µM.

As for `CCOC(=O)c1cc(C#N)c(=O)n(/N=C(\C)c2ccncc2)c1O`, the GI50 in test [1], in test [2], in test [3], in test [5], in [8] and in [6] was greater than 100 µM in each case. The GI50 in [9] was greater than 100 µM. Further, the TGI in test [1], in test [2], in test [3], in test [5], in test [8] and in test [6] was greater than 100 µM in each case. This compound also registered a TGI in test [9] greater than 100 µM.

In the case of `OC1(CCc2ccccc2)COC(C(F)(F)F)(C(F)(F)F)C1` (stereo not drawn), the concentration for total growth inhibition (TGI) in test [1], in test [2], in test [3], in [4], in [5] and in [8] was greater than 100 µM in each case. Also, the total growth inhibition concentration (TGI) in [6], in test [7] and in [9] was greater than 100 µM throughout.

With `Cc1[nH]c2ccccc2c1C1Cc2ccccc2N1C(=O)/C=C\C(=O)O` (stereo not drawn), the TGI in test [1] was greater than 100 µM; in [2], 37.6 µM; in [3] it was 99.4 µM; in test [4] it was 77.4 µM; in test [5], greater than 100 µM; in test [6], greater than 100 µM. Also, the TGI in test [7] was 75.2 µM.

As for `COC(=O)C1C(C(=O)OC)C2(OC)c3ccccc3-c3ccccc3C12` (stereo not drawn), the concentration for total growth inhibition (TGI) in test [1] is greater than 100 µM; in [2] it was greater than 100 µM; in [3], greater than 100 µM; in [4], 88.8 µM; in test [5], greater than 100 µM; in test [6], greater than 100 µM. The compound further had a total growth inhibition concentration (TGI) in test [7] greater than 100 µM.
